Test results as given in PubChem BioAssay (NCI).
Several values for one entry are separate records, joined by “and”; a condition that tells them apart may be missing. Identical values can stand only once.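 A five-concentration, 48-hour dose response in 96-well plates underlies each endpoint, interpolated linearly between surrounding concentrations. GI50 is the concentration that inhibits growth by half. TGI marks complete inhibition of growth.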

Experiments:
Assay in all cases: inhibition of tumour cell growth, NCI panel, 48 h
RXF 393 renal = tested on: RXF 393 renal
HS 578T breast = tested on: HS 578T breast
SN12C renal = tested on: SN12C renal
SK-MEL-2 melanoma = tested on: SK-MEL-2 melanoma
HT29 colon = tested on: HT29 colon
HCT-15 colon = tested on: HCT-15 colon
HCT-116 colon = tested on: HCT-116 colon
COLO 205 colon = tested on: COLO 205 colon
SK-OV-3 ovarian = tested on: SK-OV-3 ovarian
NCI-H226 lung = tested on: NCI-H226 lung

SMILES	GI50 (RXF 393 renal)	TGI (RXF 393 renal)	GI50 (HS 578T breast)	TGI (HS 578T breast)	GI50 (SN12C renal)	TGI (SN12C renal)	GI50 (SK-MEL-2 melanoma)	TGI (SK-MEL-2 melanoma)	GI50 (HT29 colon)	TGI (HT29 colon)	GI50 (HCT-15 colon)	TGI (HCT-15 colon)	GI50 (HCT-116 colon)	TGI (HCT-116 colon)	GI50 (COLO 205 colon)	TGI (COLO 205 colon)	GI50 (SK-OV-3 ovarian)	TGI (SK-OV-3 ovarian)	GI50 (NCI-H226 lung)	TGI (NCI-H226 lung)
Cn1c(COC(=O)NCCN2CCOCC2)nc2c(N3CCOCC3)nc(-c3ccccc3)nc21	0.797 µM	2.22 µM	1.49 µM	5.38 µM	1.03 µM	2.6 µM	1.65 µM	3.2 µM	0.35 µM	1.66 µM	0.46 µM	1.87 µM	0.397 µM	1.7 µM	1.49 µM	3.36 µM	4.79 µM	16.1 µM	4.38 µM	20.3 µM
C=C(C)[C@@H]1CCC[C@]2(C(=O)O)CC[C@]3(C)[C@@H](CC[C@@H]4[C@@]5(C)C/C(=C/c6ccncc6)C(=O)C(C)(C)[C@@H]5CC[C@]43C)[C@@H]12	2.09 µM	4.47 µM	19.4 µM	> 100 µM	3.71 µM	> 100 µM	2.59 µM	6.72 µM	2.69 µM	9.5 µM	1.85 µM	4.31 µM	1.36 µM	2.8 µM	1.64 µM	3.25 µM	4.91 µM	34.3 µM	4.66 µM	53.4 µM
CCC1(N2C(=O)c3c(F)c(F)c(F)c(F)c3C2=O)C(=O)NC(=O)N(c2ccccc2)C1=O (stereo unspecified)	2.75 µM	15.5 µM	4.14 µM	30.1 µM	1.57 µM	3.54 µM	3.84 µM	> 100 µM	2.23 µM	4.89 µM	2.32 µM	7.14 µM	4.1 µM	18.2 µM	2.57 µM	6.78 µM	10.6 µM	31 µM	10.9 µM	24.2 µM
CN1CCN(C(=S)SCN2C(=O)c3ccccc3S2(=O)=O)CC1	39.5 µM	> 100 µM	58.7 µM	> 100 µM	52.5 µM	> 100 µM	> 100 µM	> 100 µM	4.24 µM	18 µM	21.3 µM	99.1 µM	12.8 µM	44.9 µM	3.48 µM	21.3 µM	> 100 µM	> 100 µM	> 100 µM	> 100 µM
CN(C)c1ccc(Sc2ccc3nc(N)nc(N)c3c2)cc1	1.06 µM	11.3 µM	4.72 µM	27.4 µM	0.761 µM	14.2 µM	3.84 µM	16.1 µM	0.453 µM	12 µM	0.429 µM	14.2 µM	0.305 µM	1.64 µM	1.14 µM	2.59 µM	2.71 µM	16.8 µM	4.21 µM	18.6 µM
N#Cc1ccc(N2Cc3cc(Cl)ccc3OC3=C2C(=O)N(Cc2ccccc2)C3=O)cc1	1.54 µM	3.05 µM	2.62 µM	9.25 µM	1.51 µM	3.14 µM	2.08 µM	4.51 µM	1.58 µM	3.96 µM	0.628 µM	2.95 µM	0.284 µM	1.25 µM	1.21 µM	2.92 µM	10.9 µM	31.5 µM	1.93 µM	6.78 µM
COC(=O)Nc1nc2ccc(Sc3ccc(NC(=O)Nc4cc(C(F)(F)F)ccc4F)cc3)cc2[nH]1	3.29 µM	8.05 µM	1.35 µM	7.24 µM	3.82 µM	11 µM	3.15 µM	10.6 µM	1.4 µM	4.54 µM	1.62 µM	8.19 µM	1.37 µM	4.67 µM	3.67 µM	9.29 µM	5.1 µM	14.3 µM	3.81 µM	20.2 µM
Cc1csc(Nc2nc(-c3cccc(Cl)c3)nc(C(Cl)(Cl)Cl)n2)n1	1.12 µM	6.44 µM	1.79 µM	13.2 µM	13.5 µM	> 33.3 µM	25.8 µM	> 33.3 µM	1.04 µM	13.1 µM	4.46 µM	> 33.3 µM	2.29 µM	> 33.3 µM	1.04 µM	5.43 µM	8.69 µM	> 33.3 µM	> 33.3 µM	> 33.3 µM
O=C(NO)C(O)C(O)C(O)C(O)CO (stereo unspecified)	> 100 µM	> 100 µM	> 100 µM	> 100 µM	> 100 µM	> 100 µM	> 100 µM and 76.6 µM	> 100 µM	> 100 µM and 38.1 µM	> 100 µM	> 100 µM	> 100 µM	> 100 µM and 27.1 µM	> 100 µM and 73.5 µM	> 100 µM and 51.5 µM	> 100 µM	> 100 µM	> 100 µM	> 71.5 µM and 50.4 µM	> 100 µM
COc1ccc(S(=O)(=O)NCCNc2nccc(-c3c(-c4ccccc4)nc4sccn34)n2)cc1	5.71 µM	91 µM	2.18 µM	47.4 µM	1.93 µM	> 100 µM	4.98 µM	> 100 µM	1.72 µM	> 100 µM	2.42 µM	> 100 µM	1.58 µM	> 100 µM	2.66 µM	> 100 µM	4.18 µM	> 100 µM	4.66 µM	> 100 µM
O=C(CN=Cc1cccs1)CSC(c1ccccc1)c1ccccc1	17.1 µM	44.1 µM	26.1 µM	97 µM	19.6 µM	36.1 µM	19 µM	34.8 µM	27.7 µM	99.2 µM	17.7 µM	57.3 µM	16.4 µM	40.7 µM	11.7 µM	24 µM	16.3 µM	58.2 µM	24 µM	66 µM
O=[N+]([O-])O.[NH-]C1CCCCC1[NH-].[NH-]C1CCCCC1[NH-].[NH-]C1CCCCC1[NH-].[OH-].[OH-].[OH-].[Pt+4].[Pt+4].[Pt+4] (stereo unspecified)	1.2 µM	17.3 µM	12.1 µM	> 61.9 µM	0.126 µM	26.7 µM	2.05 µM	30.5 µM	0.0889 µM		0.223 µM	> 43.5 µM	0.0709 µM		0.631 µM	27.9 µM	19.6 µM	> 100 µM	1.37 µM	27.5 µM
C#Cc1ccc(-n2c(/C=C/c3cc(OC)c(OC)c(OC)c3)nc3ncccc3c2=O)cc1	7.04 µM	> 100 µM	3.67 µM	23 µM	20.5 µM	> 100 µM	4.54 µM	22.1 µM	3.92 µM	15.1 µM	5.58 µM	> 100 µM	5.17 µM	> 100 µM	3.19 µM	11.9 µM	5.33 µM	77.7 µM	12.9 µM	> 100 µM
O=[N+]([O-])c1cccc(-c2ncc(-c3ccc(Cl)cc3Cl)[nH]2)c1	2.25 µM	6 µM	3.89 µM	> 49.5 µM	6.01 µM	12.6 µM	16.2 µM	41.3 µM	1.88 µM	4.79 µM	2.39 µM	6.82 µM	2.21 µM	5.95 µM	3.45 µM	11.4 µM	22.7 µM	> 70 µM	8.03 µM	21.6 µM
CC(C)(C)c1ccc(S(=O)(=O)N[C@H]2CC[C@H]3[C@@H]4CCc5cc(O)ccc5[C@H]4CC[C@]23C)cc1	1.61 µM	3.46 µM	2.39 µM	6.98 µM	1.76 µM	3.55 µM	2.45 µM	4.89 µM	1.96 µM	3.74 µM			1.63 µM	2.98 µM	1.85 µM	3.3 µM	3.12 µM	8 µM	1.75 µM	3.51 µM
C=C(C)[C@]12CC(C)C34OC(/C=C\C=C\CCCCCCCCC)(O[C@@H]1[C@@H]3[C@@H]1O[C@]1(CO)[C@@H](O)[C@]1(O)C(=O)C(C)=C[C@@H]41)O2 (stereo partly specified)		28.6 µM		3.97 µM		7.86 µM				8.26 µM		25.4 µM		21 µM		14.1 µM		35.1 µM		33.2 µM
COc1ccc(N(Cc2cc(OC)c(OC)c(OC)c2)C2OC(=O)c3ccccc32)cc1 (stereo unspecified)	0.612 µM	> 100 µM	0.373 µM	> 100 µM	0.703 µM	> 100 µM			0.365 µM	> 43.1 µM	0.424 µM	> 100 µM	0.426 µM	> 100 µM	0.39 µM	5.77 µM	1.23 µM	> 100 µM	21.8 µM	> 100 µM
CCCCCCN1C(=O)CN=C1Nc1ccc2cc3ccc(NC4=NCC(=O)N4CCCCCC)cc3nc2c1	1.52 µM	3.22 µM	2.08 µM	5.66 µM	1.75 µM	3.45 µM	2.79 µM	8.45 µM	1.81 µM	4.2 µM			1.19 µM	2.48 µM	1.88 µM	4.04 µM	11.6 µM	28.9 µM	2.48 µM	7.25 µM
